Assay results published in patent US9221900B2, “Methods for identifying safe and functional humanized antibodies” (AC IMMUNE S.A., priority 2010, dated 2015).

What was measured:
microglia = experiment: Confocal imaging of microglial uptake of Aβ1-42 oligomers; format: cell-based, rat; conditions: primary cortical microglia
Protocol: Aβ1-42 oligomers are shown in red, and blue is DAPI staining of DNA to show the microglia itself (A). An apical-to-distal slice was obtained from a three-dimensional image rendered from Z-stacks. Confocal imaging was performed on mixed cortical cells labeled for Aβ (red) and stained with DAPI (blue) as described in the Example Section under Materials and Methods. Microglia were identified and scanned for the maximum fluorescence intensity through a series of confocal stacks representing intracellular locations (B), and the total area of fluorescent signal above a minimum threshold was quantified (C). Each mark on the graph represents the total area of Aβ stained within a single cell. A minimum of 20 cells were analyzed for each treatment condition. Data were compared using one-way ANOVA followed by Tukey post-hoc multiple comparison. Means (±SEM) are shown. […] Red is Iba1 staining, green is HyLite Fluor-488-labeled Aβ1 42, and blue is DAPI staining. […] Statistical analysis was done using one-way ANOVA followed by Tukey post-hoc multiple comparison.
Cells were grown on a glass coverslips. Following treatment, cells were quickly washed with PBS and then fixed with 4% paraformaldehyde for 20 min. After thorough washes, cells were immersed in 100% methanol for 10 min at −20° C. They were then washed again and incubated in a blocking solution, PBS containing 10% normal goat serum for 1 h at room temperature. After an overnight incubation with the primary antibody, cells were washed and incubated for 2 h with the secondary antibody, then washed and mounted on glass slides using ProLong Gold antifade reagent (Invitrogen). Epifluorescence and confocal images were acquired on a LSM 700 inverted microscope from Zeiss, using a 63× lens. Fluorescence intensity was measured in cell bodies delineated by saturated epifluorescence pictures. Z-stacks were rendered into a three-dimensional image using ImageJ 1.42 (National Institutes of Health, freeware) from which an apical to distal slice containing the labeled proteins was obtained. Cells treated with HyLite Fluor-488-tagged Aβ1-42 were treated in the same way except no primary or secondary antibodies were used to label for Aβ1-42.

[1] = system: mixed cortical cells from P1 rats; experiment: Aβ1-42 oligomer cytotoxicity assay, MTT readout; format: cell-based, rat
Protocol: FIG. 2 provides graphs and immunocytochemical images corresponding to the experiments described in Example 6.3. […] An MTT assay was used to determine cell viability as described in the Methods section. The means (±SEM) of five independent experiments are shown. *P<0.05, **P<0.01. […] Neurotoxicity following extended Aβ1-42 oligomer treatment was tested by morphological analyses (C).
A non-specific IgG monoclonal antibody was used as a control in all experiments.
Rat primary cortical cultures were prepared from Sprague-Dawley rats (Charles River Laboratories L'Arbresle, France) at post-natal day 1, as described by Meberg and Miller (Meberg and Miller, 2003). Cerebellum and meninges were removed, and cortices were cut into small pieces and dissociated with enzymatic disruption at 37° C. in dissociation buffer (papaine, CaCl2, EDTA, and HEPES; all from Invitrogen, Carlsbad, Calif.). DNase (Invitrogen) was added for 10 min. Following dissociation, dispersed cortical neurons were plated onto poly-L-lysine (0.01%; mol. wt 150,000-300,000; Sigma) coated 6-well, 24-well, or 96-well tissue culture plates. For immunocytochemistry, cells were grown on coated glass coverslips, into 24-well plates. Cells were maintained in Neurobasal media (Invitrogen) without phenol-red, with the addition of L-glutamine (2 mM; Sigma), B27 supplement (Invitrogen), and penicillin/streptomycin (Sigma) in a humidified incubator at 37° C. and 5% CO2. Following 1 h and 30 min in culture, the media was replaced with astrocyte-conditioned medium. After a further 4 days in culture, cell proliferation was blocked by treatment with cytosine arabinoside (Ara-C) at 2.5 μM (Invitrogen). Under these culture conditions, 20% of cells were identified as neurons by NeuN/DAPI staining (not shown). Experiments using mixed cortical cultures were generally performed at days-in-vitro (“DIV”) 6 unless stated otherwise. Enriched microglia prepared from cortex and hippocampus were harvested as described for cortical cultures above. Cortex and hippocampus were put in DMEM containing high glucose and homogenized by pipetting with a 10 mL pipette and then with a syringe. The homogenate was centrifuged for 3 min at 1,000×g, and then resuspended in pre-warmed DMEM containing high glucose containing 10% FCS and penicillin/streptomycin (microglia media). The cell suspension was next transferred to a T75 tissue-culture flask and kept in a humidified incubator at 37° C. and 5% CO2 for 1 week. The flask was shaken to separate microglia from adherent cells, and collected and washed in DMEM. The resulting cells were resuspended in 1 mL microglia media, counted, and plated at 5×10^4 cells/well. To verify microglial enrichment, cells were stained with the astroglial and microglial markers GFAP and Iba1, respectively. Greater than 60% of cells stained positive for Iba1, with no cells staining for both GFAP and Iba1. Pure microglia were prepared from post-natal day 3 CX3CR1-GFP mice (Jackson Laboratories). Cortex and hippocampus were dissected and triturated in DMEM containing high glucose using a 10 mL pipette, and then with an 18 gauge needle. The homogenate was centrifuged for 3 min at 1,000 g, and then resuspended in pre-warmed DMEM containing high glucose, 10% FBS and penicillin/streptomycin (microglia media). The cell suspension was next transferred to a T75 tissue-culture flask and kept in a humidified incubator at 37° C. and 5% CO2 for 7-10 d. Microglia were isolated by shaking, collected and washed in DMEM. The resulting cells were resuspended in 1 mL microglia media, counted, and plated on tissue culture treated glass chamber slides at 5×10^4 cells/well for use in experiments.
The cytotoxicity of Aβ1-42 oligomers was tested on mixed cortical cultures at DIV 5. All antibodies, at a final concentration of 100 μg/mL, were co-incubated with Aβ1-42 oligomers for 30 min in serum-free cell culture medium at 37° C. before treatment of cells. […]

FcγRIIIa-V158 = biological target: T1, FcγRIIIa-V158 (Homo sapiens, UniProt P08637, F176V); experiment: FcγR binding ELISA, FcγRIIIa-V158; conditions: cross-linked IgG mAb
T1 construct: fusion proteins containing the extracellular domain of the receptor γ-chain
T1 sequence (P08637 17-208 F176V): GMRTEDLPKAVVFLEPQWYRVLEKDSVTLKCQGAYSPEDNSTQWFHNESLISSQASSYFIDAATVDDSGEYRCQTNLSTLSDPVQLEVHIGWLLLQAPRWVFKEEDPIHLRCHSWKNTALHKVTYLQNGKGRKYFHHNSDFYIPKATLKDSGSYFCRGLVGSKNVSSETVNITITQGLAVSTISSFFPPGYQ
Protocol: The ability of these different monoclonal antibody backbones to internalize Aβ1-42 oligomers into microglia was then compared using confocal imaging on Aβ1-42 oligomer treated primary cortical microglia. […] To verify that microglia are indeed the cells taking up Aβ1-42 complexed to monoclonal antibodies, the study was repeated using HiLyte Fluor-488 tagged Aβ1-42 and co-stained for the microglial marker Iba1.
(§1) The binding of test antibodies to a panel of human Fcγ receptors (FcγRs) was measured using enzyme-linked immunosorbent assay (ELISA). Human FcγRs (Genentech, Inc., CA) are fusion proteins containing the extracellular domain of the receptor γ-chain with a Gly/6xHis/glutathione S transferase (GST) polypeptide tag at the C terminus. A monoclonal antibody with human IgG1 framework was used as the positive control (IgG1 control) in this experiment. Plates were coated with a mouse monoclonal anti GST antibody (Genentech, Inc.) in a 0.05 M sodium carbonate buffer (pH 9.6) overnight at 4° C. After blocking with an assay buffer containing phosphate buffered saline (PBS), 0.5% BSA, and 0.05% Tween-20, the plates were incubated with FcγRs at room temperature for 1 h. Human FcγRs were immobilized to the plate via interaction with the anti-GST coating. […] Diluted samples were applied as monomeric forms for the high affinity receptor (FcγRIa), or multimeric forms for the low affinity receptors (FcγRIIa, FcγRIIb, and FcγRIIIa). […] The antibodies bound to the FcγRs were detected with horseradish peroxidase (HRP)-conjugated F(ab′)2 fragment of goat anti human F(ab′)2 (Jackson ImmunoResearch Laboratories; West Grove, Pa.). […] The reaction was terminated with 1 M H3PO4, and absorbance at 450 nm with reference at 650 nm was measured on a plate reader (Molecular Devices, Sunnyvale, Calif.). Binding curves were generated by plotting the mean absorbance values from duplicates of sample dilutions against the respective sample absorbance.

[2] = system: human Fcγ receptors (FcγRIa, FcγRIIa, FcγRIIb, FcγRIIIa); experiment: FcγR binding ELISA, panel of human Fcγ receptors; conditions: cross-linked antibody
Protocol: FIG. 10 provides graphs and immunocytochemical images corresponding to the experiments described in Example 6.5. […] These findings are consistent with published data for human IgG4 antibodies (Gessner et al., 1998) and IgG1 antibodies carrying the D265A mutation (Shields et al., 2001).
as §1, with “FcγRIIIa). The multimeric forms of test antibodies were generated by cross linking F(ab′)2 fragment of goat anti human κ-chain (MP Biomedicals, Solon, Ohio), with test monoclonal antibody at an approximate molar ratio of 3:1. The plates were incubated with FcγRs at room temperature for 2 h.” for “FcγRIIIa).”

In the case of “MABT-IgG1-D265A: same antigen binding sequences as MABT on human IgG1 backbone carrying a D265A mutation that dramatically reduces FcγR-binding”, the “Aβ1-42 oligomer internalization into microglia, rank order” value (microglia) is reported as “MABT-IgG1>MABT>MABT-IgG1-D265A”, the “antibody-mediated increase in MTT signal under p38MAPK inhibition” value ([1]; 10 μM Aβ1-42 oligomers, 100 μg/ml antibody, 1 μM SB239063, 24 h) is reported as “no effect” and the “reversal of Aβ1-42 oligomer-mediated toxicity” value ([1]; mixed primary cortical cultures, different IgG backbones) is reported as “only a non-significant trend towards reversal”. For the same substance, the “binding to FcγRIIIa-V158, hierarchy” value (FcγRIIIa-V158) was “MABT-IgG>MABT>MABT-IgG1-D265A” and the “binding to FcγRs” value [2] was “substantially reduced binding to all the FcγRs”.
